Assay results from patent US20240425478A1, “CYCLOPENTYLPYRAZOLE CDK2 INHIBITORS” (Genentech, Inc., priority 2021, published 2024).
Like-named read-outs stand apart in the source and are kept apart here.

Key:
[1] = target: T1, Cyclin Dependent Kinase 1/Cyclin A2 (CDK1-cycA2) (Homo sapiens, UniProt P06493); assay: CDK1-cycA2 TR-FRET (Lance) enzyme assay; type: biochemical; conditions: for Ki: Table O, enzymatic assay; for FS CDK1/CDK2: fold selectivity, enzymatic Ki ratio
T1 construct: purchased ProQinase 0134-0054-1
T1 sequence (P06493 whole entry): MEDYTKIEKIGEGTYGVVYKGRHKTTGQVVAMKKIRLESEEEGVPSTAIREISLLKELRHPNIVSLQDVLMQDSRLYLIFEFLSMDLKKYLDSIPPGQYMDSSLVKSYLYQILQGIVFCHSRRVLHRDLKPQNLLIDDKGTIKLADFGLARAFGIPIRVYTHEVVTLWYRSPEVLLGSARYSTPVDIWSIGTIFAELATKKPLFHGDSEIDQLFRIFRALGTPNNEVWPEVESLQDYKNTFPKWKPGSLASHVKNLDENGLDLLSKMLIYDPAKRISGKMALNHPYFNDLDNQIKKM
T1 sequence (P20248 whole entry partner): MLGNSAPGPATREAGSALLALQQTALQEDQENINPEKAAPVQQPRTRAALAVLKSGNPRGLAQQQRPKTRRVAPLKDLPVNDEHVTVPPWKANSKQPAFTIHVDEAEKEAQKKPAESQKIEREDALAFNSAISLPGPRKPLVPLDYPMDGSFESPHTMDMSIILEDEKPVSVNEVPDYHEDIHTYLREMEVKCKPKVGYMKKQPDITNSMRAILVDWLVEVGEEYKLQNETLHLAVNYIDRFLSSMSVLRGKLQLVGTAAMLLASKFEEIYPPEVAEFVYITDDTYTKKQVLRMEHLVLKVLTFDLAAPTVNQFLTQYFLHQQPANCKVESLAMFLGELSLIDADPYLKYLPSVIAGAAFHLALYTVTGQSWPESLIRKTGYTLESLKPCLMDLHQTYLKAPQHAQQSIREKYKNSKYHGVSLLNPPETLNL
How it was run: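 TR-FRET (Lance) detection of phospho-4E-BP1 with a europium-labelled antibody after EDTA quench (15 mM final); signal taken as acceptor/donor ratio. Enzyme and compound were pre-incubated 30 min in HEPES pH 7.5 buffer with MgCl2, TCEP, BGG and Brij 35. Ki derived by Morrison fit.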

HCT116 cells = assay: p-H3 HCT-116 mitotic release cell proliferation assay (cellular CDK1); type: cell-based; conditions: Homo sapiens, HCT-116; Table O, cellular assay; read-out: CDK1 p-H3 IC50
Procedure: Inhibition of cellular CDK1 determined by release of cells from nocodazole-induced mitotic arrest, as measured by decrease in phospho-Histone H3. Histone H3 (Ser 10) level is detected in cell lysates by producing a Fluorescence Resonance Energy Transfer (FRET) signal between two antibodies, Phospho-Histone H3 Cryptate (acting as the donor) and Phospho-Histone H3 d2 (acting as the acceptor).
Plates are allowed to rest overnight at 37° C./5% CO2. The following morning, nocodazole is diluted in complete medium, and 5 μL is added to each test well and positive control well for a final concentration of 500 nM. Plates are then incubated for 16 hours at 37° C./5% CO2. […] 10 μL of diluted compound is then transferred to the cell plate (final DMSO concentration 0.1%). Cell plates are then incubated for 4 hours in 37° C. 5% CO2. A cell lysis buffer is prepared on ice using reagents from the Phospho-Histone H3 (Ser10) cellular kit (Cisbio-64HH3PEG). Supernatant is discarded from the cell plate and 80 μL of the supplemented cell lysis buffer (1:99 dilution of the Blocking Reagent and the 1× cell lysis buffer provided in the kit) is added to each of the experimental wells. The cell lysis reaction is allowed to proceed at room temperature while shaking vigorously for 30 minutes. The 384-well HTRF (Homogeneous Time Resolved Fluorescence) plate is prepared by adding 2 μL of each diluted antibody (Phospho-Histone H3 Cryptate antibody and Phospho-Histone H3 d2 antibody diluted 19:1 in a detection buffer) and 12 μL of the supplemented cell lysis buffer to each well in the HTRF plate. 4 μL of the cell lysate is added to the prepared HTRF plate which is then sealed and the reaction is allowed to proceed for a minimum of 2 hours at room temperature.

[2] = target: T2, Cyclin Dependent Kinase 2/Cyclin E1 (CDK2-cycE1) (Homo sapiens, UniProt P24941); assay: CDK2-cycE1 TR-FRET (LANCE) enzyme assay; type: biochemical; conditions: for FS CDK1/CDK2 / FS CDK4/CDK2: fold selectivity; for increased fold-selectivity CDK4/CDK2 over Comparator C: (+) sign after FS CDK4/CDK2;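 for improvement in potency against CDK2 (Ki) over Comparator C: fold lower CDK2 Ki than comparator c (Ki 0.032 µM)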
T2 construct: purchased ProQinase 0050-0055-1
How it was run: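 Kinase reaction buffer: 50 mM HEPES pH 7.5, 10 mM MgCl2, 2 mM TCEP, 0.05% BGG, 0.01% Brij 35, with 30 min compound–enzyme pre-incubation.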

[3] = system: OVISE (JCRB1043, CCNE1-amplified); assay: OVISE EdU incorporation cell proliferation assay (CDK2-dependent); type: cell-based; conditions: for IC50: cellular assay, read-out: CDK2 OVISE IC50; for FS SKOV-3/OVISE / FS p-H3/OVISE: fold selectivity; for FS p-H3/OVISE: cellular p-H3 IC50 over OVISE IC50; for increased fold-selectivity SKOV-3/OVISE over Comparator C: (+) sign after FS SKOV-3/OVISE; for improvement in CDK2 OVISE cell potency over Comparator C: Comparator C 5.5 μM
How it was run: (§1)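 EdU incorporation (0.5 μM final, last 8 h) follows a 16 h compound exposure at 37 °C, 5% CO2 in RPMI plus 10% FBS, 0.5% DMSO. After fixation, imaging scores EdU-positive cells; a 4-parameter logistic fit of that fraction gives IC50.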

SKOV-3 (ATCC HTB-77) = assay: SKOV-3 EdU incorporation cell proliferation assay (CDK4/6-dependent); type: cell-based; conditions: for IC50: Homo sapiens, cellular assay, read-out: CDK4/6 SKOV-3 IC50; for FS SKOV-3/OVISE: fold selectivity, cellular IC50 ratio
How it was run: as §1

[4] = target: T3, Cyclin Dependent Kinase 4/Cyclin D3 (CDK4-cycD3) (Homo sapiens, UniProt P11802); assay: CDK4-cycD3 TR-FRET (LANCE) enzyme assay; type: biochemical; conditions: for Ki: Table O, enzymatic assay; for FS CDK4/CDK2: fold selectivity, enzymatic Ki ratio
T3 construct: purchased Carna Biosciences 04-105
T3 sequence (P11802 whole entry): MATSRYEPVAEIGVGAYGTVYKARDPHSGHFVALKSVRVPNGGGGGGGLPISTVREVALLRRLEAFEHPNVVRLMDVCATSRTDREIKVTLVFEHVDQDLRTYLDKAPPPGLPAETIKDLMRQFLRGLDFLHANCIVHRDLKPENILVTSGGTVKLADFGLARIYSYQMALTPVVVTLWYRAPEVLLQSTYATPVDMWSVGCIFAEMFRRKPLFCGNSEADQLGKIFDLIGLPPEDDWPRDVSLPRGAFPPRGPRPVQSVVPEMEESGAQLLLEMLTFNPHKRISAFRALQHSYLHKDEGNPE
T3 sequence (P30281 whole entry partner): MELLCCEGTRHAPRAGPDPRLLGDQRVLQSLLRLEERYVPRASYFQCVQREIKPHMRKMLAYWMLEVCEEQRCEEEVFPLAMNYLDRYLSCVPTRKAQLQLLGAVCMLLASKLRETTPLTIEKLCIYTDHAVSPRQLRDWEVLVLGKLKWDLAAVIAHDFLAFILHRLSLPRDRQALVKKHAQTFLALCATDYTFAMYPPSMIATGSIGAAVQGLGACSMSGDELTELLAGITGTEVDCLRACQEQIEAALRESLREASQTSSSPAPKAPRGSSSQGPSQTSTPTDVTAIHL
How it was run: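 Compound dose responses pre-incubated 30 min with enzyme mix in 50 mM HEPES pH 7.5, 10 mM MgCl2, 2 mM TCEP, 0.05% BGG, 0.01% Brij 35. Reaction quenched with EDTA (15 mM final); Eu-anti-phospho-4E-BP1 TR-FRET detection, acceptor/donor ratio. Ki derived by Morrison equation.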

[5] = Table O, enzymatic assay, read-out: CDK2 Ki
[6] = Table O, enzymatic CDK1 Ki over CDK2 Ki
[7] = Table O, enzymatic CDK4 Ki over CDK2 Ki
[8] = Table Q, enzymatic assay, read-out: CDK2 Ki
[9] = Table O, cellular SKOV-3 IC50 over OVISE IC50
[10] = Table Q, in brackets after OVISE IC50

Structure (SMILES) | Ki [1] [nM] | IC50 (HCT116 cells) [nM] | Ki [2, 5] [nM] | FS CDK1/CDK2 [2, 6] | FS CDK4/CDK2 [2, 7] | IC50 (SKOV-3 (ATCC HTB-77); SK-OV-3, Table O) [nM] | Ki [4] [nM] | IC50 ([3]; Table O) [nM] | FS SKOV-3/OVISE [3, 9] | FS p-H3/OVISE ([3]; Table O) | also measured
CC(C)NC(=O)O[C@@H]1CC[C@H](c2cc(Nc3ccnc(C(F)(F)F)n3)n[nH]2)C1 [Example 2L, (1R,3S)-3-(3-((2-(trifluoromethyl)pyrimidin-4-yl)amino)-1H-pyrazol-5-yl)cyclopentyl isopropylcarbamate] | 2.9 | 1.8 | 0.17 | 17 | 650 | 640 | 110 | 12 | 53 | 0.15 | improvement in potency against CDK2 (Ki) over Comparator C [2]: 188 fold; increased fold-selectivity CDK4/CDK2 over Comparator C ([2]; Table Q): (+) (The (+) sign in Table Q signifies desirable increased fold-selectivity of the exemplary compounds over Comparator C); Ki [2, 8]: 0.17 nM; FS CDK1/CDK2 ([2]; Table Q, enzymatic): 17; FS CDK4/CDK2 ([2]; Table Q, enzymatic): 650; increased fold-selectivity SKOV-3/OVISE over Comparator C ([3]; Table Q): (+) (The (+) sign in Table Q signifies desirable increased fold-selectivity of the exemplary compounds over Comparator C); FS SKOV-3/OVISE ([3]; Table Q, cellular): 53; improvement in CDK2 OVISE cell potency over Comparator C [3, 10]: 458 fold; IC50 (SKOV-3 (ATCC HTB-77); SK-OV-3, Table Q): 640 nM
Cn1cc(Nc2cc([C@H]3CC[C@@H](OC(=O)NC(C)(C)C)C3)[nH]n2)ccc1=O [Example 1, (1R,3S)-3-(3-((1-methyl-6-oxo-1,6-dihydropyridin-3-yl)amino)-1H-pyrazol-5-yl)cyclopentyl tert-butylcarbamate] | 270 | 100 | 7.6 | 36 | 92 | > 20000 | 700 | 220 | >91 | 0.45 | FS CDK1/CDK2 increased over Comparator D, (+) sign ([1]; Table R): (+); FS CDK1/CDK2 ([1]; Table R): 36; FS CDK1/CDK2 ([1]; Table S): 36; Ki ([2]; Table R, enzymatic assay, read-out: CDK2 Ki): 7.6 nM; CDK2 Ki fold change in potency versus Comparator D ([2]; Table R, in brackets after CDK2 Ki): 0.4 fold; Ki ([2]; Table S, enzymatic assay, read-out: CDK2 Ki): 7.6 nM; CDK2 Ki fold change in potency versus Comparator E ([2]; Table S, in brackets after CDK2 Ki): 0.1 fold; CDK2 OVISE IC50 fold change in potency versus Comparator D ([3]; Table R, in brackets after OVISE IC50): 17 fold; CDK2 OVISE IC50 fold change in potency versus Comparator E ([3]; Table S, in brackets after OVISE IC50): 0.8 fold; IC50 (SKOV-3 (ATCC HTB-77); SK-OV-3, Table R): > 20000 nM; IC50 (SKOV-3 (ATCC HTB-77); SK-OV-3, Table S): > 20000 nM; selectivity for CDK2 over CDK4 compared with Comparator E (SKOV-3 (ATCC HTB-77); SKOV-3/OVISE fold-selectivity cellular assay data): increase in selectivity for CDK2 over CDK4; FS SKOV-3/OVISE increased over Comparator D, (+) sign (SKOV-3 (ATCC HTB-77); Table R): (+); FS SKOV-3/OVISE (SKOV-3 (ATCC HTB-77); Table R): > 91; FS SKOV-3/OVISE increased over Comparator E, (+) sign (SKOV-3 (ATCC HTB-77); Table S): (+); FS SKOV-3/OVISE (SKOV-3 (ATCC HTB-77); Table S): > 91; FS CDK4/CDK2 increased over Comparator D, (+) sign ([4]; Table R): (+); FS CDK4/CDK2 ([4]; Table R): 92; FS CDK4/CDK2 increased over Comparator E, (+) sign ([4]; Table S): (+); FS CDK4/CDK2 ([4]; Table S): 92
COc1nccc(Nc2cc([C@H]3CC[C@@H](OC(=O)NC(C)C)C3)[nH]n2)n1 [Example 2F, (1R,3S)-3-(3-((2-methoxypyrimidin-4-yl)amino)-1H-pyrazol-5-yl)cyclopenty1 isopropylcarbamate] | 11 | 76 | 0.41 | 21 | 270 | 3500 | 190 | 65 | 58 | 1.3 | improvement in potency against CDK2 (Ki) over Comparator C [2]: 78 fold; increased fold-selectivity CDK4/CDK2 over Comparator C ([2]; Table Q): (+) (The (+) sign in Table Q signifies desirable increased fold-selectivity of the exemplary compounds over Comparator C); Ki [2, 8]: 0.41 nM; FS CDK1/CDK2 ([2]; Table Q, enzymatic): 21; FS CDK4/CDK2 ([2]; Table Q, enzymatic): 270; Ki ([2]; read-out: CDK2 activity / potency (enzymatic assay)): ≤ 1 nM; increased fold-selectivity SKOV-3/OVISE over Comparator C ([3]; Table Q): (+) (The (+) sign in Table Q signifies desirable increased fold-selectivity of the exemplary compounds over Comparator C); FS SKOV-3/OVISE ([3]; Table Q, cellular): 58; improvement in CDK2 OVISE cell potency over Comparator C [3, 10]: 84.6 fold; IC50 (SKOV-3 (ATCC HTB-77); SK-OV-3, Table Q): 3500 nM

The next lines start with results.

Ki [1] [nM] | IC50 (HCT116 cells) [nM] | Ki [2, 5] [nM] | FS CDK1/CDK2 [2, 6] | FS CDK4/CDK2 [2, 7] | IC50 (SKOV-3 (ATCC HTB-77); SK-OV-3, Table O) [nM] | Ki [4] [nM] | Structure (SMILES) | IC50 ([3]; Table O) [nM] | FS SKOV-3/OVISE [3, 9] | FS p-H3/OVISE ([3]; Table O) | also measured
9.4 | 150 | 0.3 | 31 | 433 | 5300 | 130 | Cn1nc(Nc2cc([C@H]3CC[C@@H](OC(=O)NC(C)(C)C(F)F)C3)[nH]n2)ccc1=O [Example 5C, (1R,3S)-3-(3-((1-methyl-6-oxo-1,6-dihydropyridazin-3-yl)amino)-1H-pyrazol-5-yl)cyclopentyl (1,1-difluoro-2-methylpropan-2-yl)carbamate] | 63 | 84 | 2.4 | –
8.9 | 6.9 | 0.38 | 23 | 97 | 360 | 37 | O=C(NC12CC(C1)C2)O[C@@H]1CC[C@H](c2cc(Nc3ccc(CO)nc3)n[nH]2)C1 [Example 9I, (1R,3S)-3-(3-((6-(hydroxymethyl)pyridin-3-yl)amino)-1H-pyrazol-5-yl)cyclopentyl bicyclo[1.1.1]pentan-1-ylcarbamate] | 30 | 12 | 0.23 | –
110 | 350 | 4 | 27 | 6 | 1300 | 24 | CC1(NC(=O)O[C@@H]2CC[C@H](c3cc(Nc4cccnn4)n[nH]3)C2)CNC1 [Example 3F, (1R,3S)-3-(3-(pyridazin-3-ylamino)-1H-pyrazol-5-yl)cyclopentyl (3-methylazetidin-3-yl)carbamate] | 320 | 4.1 | 1.1 | –
95 | 310 | 2.9 | 33 | 162 | 16000 | 470 | Cc1nc(S(C)(=O)=O)ccc1Nc1cc([C@H]2CC[C@@H](OC(=O)NC(C)(C)C)C2)[nH]n1 [Example 4L, (1R,3S)-3-(3-((2-methyl-6-(methylsulfonyl)pyridin-3-yl)amino)-1H-pyrazol-5-yl)cyclopentyl tert-butylcarbamate] | 310 | 52 | 1 | –
58 | 180 | 1.8 | 32 | 28 | 5700 | 51 | CC(C)(C)NC(=O)O[C@@H]1CC[C@H](c2cc(Nc3ccnc(CO)c3)n[nH]2)C1 [Example 10C, (1R,3S)-3-(3-((2-(hydroxymethyl)pyridin-4-yl)amino)-1H-pyrazol-5-yl)cyclopentyl tert-butylcarbamate] | 130 | 44 | 1.4 | –
